Earlier results, collected in patent US12290596B2, “Compositions and methods for the treatment of opioid overdose” (priority 2021, dated 2025).

Details: intranasal formulation with […] Intravail; cited from earlier work

## CNS(=O)(=O)Cc1ccc2[nH]cc(CCN(C)C)c2c1 [sumatriptan]
  Increase of maximum plasma concentration in comparison to Imitrex nasal spray: almost four-fold
  Increase of total exposure (AUC): 32%
  Tmax: 8 to 10 min
